Results on 14 compounds are retold here after US11518763B2 (SCOHIA PHARMA, INC., priority 2018, dated 2022).

Where two headings read alike, the source gives them in different places.

For series [1] the following is noted: amide bond, DMF.
In series [2] the test system is Nqo1 mRNA. The series is described as follows: Expression of NRF2-downstream gene Nqo1 mRNA in rat kidney and liver after oral administration. To be noted: 17 h, Kidney, male SD rats, 3 mg/kg oral, about 17 hours after administration, read-out: Nqo1 mRNA expression (fold change vs vehicle). The series is classed as in vivo. How it is done:
Test Example 2: Activity of Compound on Expression of NRF2-Downstream Gene in Rat Kidney and Liver
For the NRF2-downstream gene, Nqol mRNA was examined in regard to the expression level in kidney. Compounds were prepared into 0.5% methylcellulose (MC, METOLOSE, Shin-Etsu Chemical Co., Ltd.) suspensions, and were orally administered to male SD rats (CLEA Japan, Inc.) in a dose of 5 mL/kg. About 17 hours after the administration, the rats were euthanized under anesthesia, and their kidneys and livers were collected. By using an extraction kit, QIAsymphony RNA kit (QIAGEN, catalog number 931636) or RNeasy 96 Kit (QIAGEN, catalog number 74182), total RNA was extracted. From the total RNA thus obtained, cDNA was produced by using a cDNA synthesis kit, Superscript IV VIVO Master Mix (Thermo Fisher Scientific, catalog number 11754-250). By using the cDNA thus obtained with Taqman Fast Advanced Master Mix (Thermo Fisher Scientific, catalog number 4444557) or Platinum Quantitative PCR SuperMix (Thermo Fisher Scientific, catalog number 11743-500), and primers and a probe, the sequences of SEQ ID NO:1. SEQ ID NO:2, and SEQ ID NO: 3, which are shown in Table 4, real-time quantitative PCR was conducted with 7900HT Fast Real-Time PCR Systems or ViiA7 Fast Real-Time PCR Systems (Applied Biosystems). The expression level of Nqol mRNA in each organ of the rat to which the vehicle, 0.5% MC solution, was administered is defined as 1, and the variation is shown in Table 5.

For series [3], the target named is T1, binding between NRF2 and KEAP1 (biotinylated human KEAP1 protein (Kelch domain), TAMRA-labeled NRF2 peptide) (Homo sapiens, UniProt Q14145).
T1 construct: biotinylated human KEAP1 protein (Kelch domain); biotin (biotinylated)
The series can be described thus: Measurement of activity of inhibiting NRF2 binding (NRF2-KEAP1 TR-FRET). To be noted: inhibition rate relative to control at 100 nM test compound, TR-FRET, 60 min at room temperature; for inhibition at 0.1 µM: read-out: NRF2 binding inhibitory activity (at 100 nM).

T1 sequence (Q14145 321-609 limits assumed): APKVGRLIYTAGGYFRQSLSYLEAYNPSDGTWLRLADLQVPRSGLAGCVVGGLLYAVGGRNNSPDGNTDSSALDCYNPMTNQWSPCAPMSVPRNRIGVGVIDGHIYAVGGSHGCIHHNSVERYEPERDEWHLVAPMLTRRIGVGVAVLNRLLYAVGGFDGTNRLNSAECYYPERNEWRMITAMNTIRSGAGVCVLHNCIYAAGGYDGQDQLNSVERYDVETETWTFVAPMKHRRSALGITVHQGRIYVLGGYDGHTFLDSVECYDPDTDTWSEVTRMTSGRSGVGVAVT

Take `COC(=O)C(C)(C)C1c2ccc3c(c2)CN(CC3)C(=O)c2ccc(cc2)COCCCn2nnc3c(C)c1ccc32` (centres unmarked): the ring closure, yield of all isomers in series [1] (from COC(=O)C(C)(C)C(c1ccc2c(c1)CNCC2)c1ccc2c(nnn2CCCOCc2ccc(C(=O)O)cc2)c1C, HATU, 18.6 mM, 25.0 °C, 4.0 h) worked out at 20.7%.

Turning to `CCOC(=O)CC1c2ccc3c(c2)CN(CC3)C(=O)c2ccc(cc2)COCCCn2nnc3c(C)c1ccc32` (centres unmarked), the ring closure, yield of all isomers in series [1] (from CCOC(=O)CC(c1ccc2c(c1)CN(C(=O)OC(C)(C)C)CC2)c1ccc2c(nnn2CCCOCc2ccc(C(=O)OC(C)(C)C)cc2)c1C, HATU, 23.0 mM, 25.0 °C, 3.0 h, 2 steps) was determined as 67.7%. Turning to `Cc1c2ccc3c1nnn3CCCCCc1ccc(c(F)c1)C(=O)N1CCc3ccc(cc3C1)C2CC(=O)O` (racemic) [Example 10, [18-Fluoro-32-methyl-20-oxo-8,9,10,21-tetraazahexacyclo[19.5.3.2^16,19.1^3,7.0^6,10.0^24,28]dotriaconta-1(26),3(32),4,6,8,16,18,24,27,30-decaen-2-yl]acetic acid], the fold induction at 3 mg/kg in series [2] was 5.9. Further, the inhibition at 0.1 µM in series [3] was 100%. With `Cc1cc2cc(C)c1C(=O)N1CCc3ccc(cc3C1)C(C(C)(C)C(=O)O)c1ccc3c(nnn3CCCOC2)c1C` (centres unmarked) [Example 58, 2-methyl-2-[18,30,32-trimethyl-20-oxo-14-oxa-8,9,10,21-tetrazahexacyclo[19.5.3.2^16,19.1^3,7.0^6,10.0^24,28]dotriaconta-1(27),3(32),4,6,8,16(31),17,19(30),24(28),25-decaen-2-yl]propanoic acid], in series [2], the fold induction at 3 mg/kg was 4.8. Further, the inhibition at 0.1 µM in series [3] was 100%. Turning to `Cc1c2ccc3c1nnn3CCOCCc1ccc(cc1)C(=O)N1CCc3ccc(cc3C1)C2CC(=O)O` (racemic) [Example 29, [32-Methyl-20-oxo-13-oxa-8,9,10,21-tetraazahexacyclo[19.5.3.2^16,19.1^3,7.0^6,10.0^24,28]dotriaconta-1(26),3(32),4,6,8,16,18,24,27,30-decaen-2-yl]acetic acid], the fold induction at 3 mg/kg in series [2] came out at 5.9. For the same compound, the inhibition at 0.1 µM in series [3] worked out at 100%. In series [1] (from COC(=O)C(C)(C)C(c1ccc2c(c1)CNCC2)c1ccc2c(nnn2CCCOCc2cc(C)c(C(=O)O)c(C)c2)c1C, HATU, 30.4 mM, 25.0 °C, 4.0 h), `COC(=O)C(C)(C)C1c2ccc3c(c2)CN(CC3)C(=O)c2c(C)cc(cc2C)COCCCn2nnc3c(C)c1ccc32` (centres unmarked) came in with a ring closure, yield of all isomers of 29.6%. In the case of `Cc1c2ccc3c1nnn3CCCCCc1ccc(c3c1CCO3)C(=O)N1CCc3ccc(cc3C1)C2CC(=O)O` (racemic) [Example 7, [33-Methyl-2-oxo-5-oxa-1,15,16,17-tetraazaheptacyclo[22.5.3.2^3,9.1^18,22.0^4,8.0^15,19.0^27,31]pentatriaconta-3,8,16,18(33),19,21,24,26,31,34-decaen-23-yl]acetic acid], the fold induction at 3 mg/kg in series [2] amounted to 4.3. Also, the inhibition at 0.1 µM in series [3] stood at 100%. Regarding `Cc1c2ccc3c1nnn3CCCOCc1ccc(cc1)C(=O)N1CCc3ccc(cc3C1)C2C(C)(C)C(=O)O` (centres unmarked) [Example 55, 2-methyl-2-[32-methyl-20-oxo-14-oxa-8,9,10,21-tetrazahexacyclo[19.5.3.2^16,19.1^3,7.0^6,10.0^24,28]dotriaconta-1(27),3(32),4,6,8,16,18,24(28),25,30-decaen-2-yl]propanoic acid], the fold induction at 3 mg/kg in series [2] turned out to be 6.3. Besides, in series [3], the inhibition at 0.1 µM was 100%. For `Cc1c2ccc3c1nnn3CCCCCc1ccc(cc1)C(=O)N1CCc3ccc(cc3C1)C2C(C)(C)C(=O)O` (centres unmarked) [Example 62, 2-methyl-2-[32-methyl-20-oxo-8,9,10,21-tetrazahexacyclo[19.5.3.2^16,19.1^3,7.0^6,10.0^24,28]dotriaconta-1(27),3(32),4,6,8,16(31),17,19(30),24(28),25-decaen-2-yl]propanoic acid], the fold induction at 3 mg/kg in series [2] worked out at 6.9. Further, the “NRF2 binding inhibitory activity (at 100 nM)” value in series [3] (0.1 µM) is reported as 100%. In series [1] (from COC(=O)C(C)(C)C(c1ccc2c(c1)CNCC2)c1ccc2c(nnn2CCCCCc2ccc(C(=O)O)cc2)c1C, HATU, 17.6 mM, 30.0 °C, 19.0 h), `COC(=O)C(C)(C)C1c2ccc3c(c2)CN(CC3)C(=O)c2ccc(cc2)CCCCCn2nnc3c(C)c1ccc32` (centres unmarked) had a ring closure, yield of all isomers of 12.4%. On to `Cc1c2ccc3c1nnn3CCCOCc1ccc(c(F)c1)C(=O)N1CCc3ccc(cc3C1)C2CC(=O)O` (racemic) [Example 21, [18-Fluoro-32-methyl-20-oxo-14-oxa-8,9,10,21-tetraazahexacyclo[19.5.3.2^16,19.1^3,7.0^6,10.0^24,28]dotriaconta-1(26),3(32),4,6,8,16,18,24,27,30-decaen-2-yl]acetic acid], for which the fold induction at 3 mg/kg in series [2] was found to be 5. Also, the inhibition at 0.1 µM in series [3] was 100%. For the compound `CCOC(=O)CC1c2ccc3c(c2)CN(CC3)C(=O)c2ccc(cc2)CCCCCn2nnc3c(C)c1ccc32` (centres unmarked) [Example 37, Ethyl [32-methyl-20-oxo-8,9,10,21-tetraazahexacyclo[19.5.3.2^16,19.1^3,7.0^6,10.0^24,28]dotriaconta-1(26),3(32),4,6,8,16,18,24,27,30-decaen-2-yl]acetate], the ring closure, yield of all isomers in series [1] (from CCOC(=O)CC(c1ccc2c(c1)CN(C(=O)OC(C)(C)C)CC2)c1ccc2c(nnn2CCCCCc2ccc(C(=O)OC(C)(C)C)cc2)c1C, HATU, 51.2 mM, 25.0 °C, 4.0 h, 2 steps) was 52.4%. Besides, the inhibition at 0.1 µM in series [3] came to 29%. Take `CCc1cc2ccc1C(=O)N1CCc3ccc(cc3C1)C(CC(=O)O)c1ccc3c(nnn3CCCCC2)c1C` (racemic) [Example 3, [18-Ethyl-32-methyl-20-oxo-8,9,10,21-tetraazahexacyclo[19.5.3.2^16,19.1^3,7.0^6,10.0^24,28]dotriaconta-1(26),3(32),4,6,8,16,18,24,27,30-decaen-2-yl]acetic acid]: the fold induction at 3 mg/kg in series [2] was 4.7. For the same compound, the inhibition at 0.1 µM in series [3] stood at 100%.

`COC(=O)C(C)(C)C1c2ccc3c(c2)CN(CC3)C(=O)c2c(Cl)cc(cc2Cl)OCCCCn2nnc3c(C)c1ccc32` (centres unmarked): the ring closure, yield of all isomers in series [1] (from COC(=O)C(C)(C)C(c1ccc2c(c1)CNCC2)c1ccc2c(nnn2CCCCOc2cc(Cl)c(C(=O)O)c(Cl)c2)c1C, HATU/DIPEA, 15.2 mM, 25.0 °C, 4.0 h) was determined as 47.5%.
